Measured values reported in patent US20110166132A1, “Gamma Secretase Modulators” (Amgen Inc., priority 2007, published 2011).

Target: T1, gamma secretase (Homo sapiens, UniProt P49768)
T1 construct: HEK293 cells stably expressing full length Amyloid Precursor Protein (APP); endogenous in cells; host or cells: HEK 293 cells stably expressing full length APP
Assay: GSM cell-based assay: Aβ 42 inhibition or reduction in HEK 293 cells over-expressing APP (sandwich ELISA)
Details: approximate IC50; HEK293 cells stably expressing full length APP, 24 hours incubation, 10-point dose response starting at 10 μM
Procedure, shortened: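 APP-overexpressing HEK293 cells treated 24 h with 10-point doses from 10 μM (0.1% DMSO). Aβ42 in conditioned medium measured by sandwich ELISA (RabMAb 42 capture, biotinylated 6E10 detection, Eu time-resolved fluorescence); CellTiter-Blue viability run in parallel. IC50 from percent of control versus concentration.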

**Q.** For `Cc1cc(-c2ccc(NC(=O)C(C)c3ccc(NC(C)C)cc3)cc2)ccn1` (stereo not shown) [Cpd 443], which IC50 is on record?
**A.** The IC50 was 302 nM.

**Q.** How did the IC50 turn out when `Cc1cc(-c2ccc(NC(=O)C(C)c3cccc(-c4ccc(OC(F)(F)F)cc4)c3)cc2)ccn1` (stereo not shown) [Cpd 453, N-(4-(2-methyl-4-pyridinyl)phenyl)-2-(4′-(trifluoromethoxy)-3-biphenylyl)-propanamide] was run?
**A.** Its IC50 is 1420 nM.

**Q.** Which IC50 does the source give for `COc1cc(NC(=O)C(C)c2cc(F)cc(C(F)(F)F)c2)ccc1-c1ccnc(C)c1` (stereo not shown) [Cpd 454, 2-(3-fluoro-5-(trifluoromethyl)phenyl)-N-(3-methoxy-4-(2-methyl-4-pyridinyl)-phenyl)propanamide] here?
**A.** The IC50 was 806 nM.

**Q.** For `Cc1cc(-c2ccc(NC(=O)C(C)n3cc(-c4ccccc4)c(C)n3)cc2)ccn1` (stereo not shown) [Cpd 455, 2-(3-methyl-4-phenyl-1H-pyrazol-1-yl)-N-(4-(2-methyl-4-pyridinyl)phenyl)-propanamide], which IC50 is on record?
**A.** Its IC50 is 908 nM.

**Q.** For `Cc1cc(-c2ccc(NC(=O)C(C)c3cccc(Br)c3)cc2C#N)ccn1` (stereo not shown) [Cpd 460, 2-(3-bromophenyl)-N-(3-cyano-4-(2-methyl-4-pyridinyl)phenyl)propanamide], which IC50 is on record?
**A.** Its IC50 is 5760 nM.

**Q.** `COc1cc(NC(=O)[C@H](C)c2cccc(Br)c2)ccc1-c1ccnc(C)c1` [Cpd 461, (2R)-2-(3-bromophenyl)-N-(3-methoxy-4-(2-methyl-4-pyridinyl)phenyl)propanamide] was tested. Which IC50 did it give?
**A.** The IC50 was 911 nM.

**Q.** `Cc1cc(-c2ccc(NC(=O)C(C)c3ccc(N(C)C(C)C)cc3)cc2)ccn1` (stereo not shown) [Cpd 481, 2-(4-(methyl(1-methylethyl)amino)phenyl)-N-(4-(2-methyl-4-pyridinyl)phenyl)-propanamide] was tested. Which IC50 did it give?
**A.** The IC50 was 2130 nM.

**Q.** For `Cc1cc(-c2ccc(NC(=O)C(C)c3ccc4c(c3)CCN4)cc2)ccn1` (stereo not shown) [Cpd 497, 2-(2,3-dihydro-1H-indol-5-yl)-N-(4-(2-methyl-4-pyridinyl)phenyl)propanamide], which IC50 is on record?
**A.** The IC50 was greater than 10000 nM.

**Q.** Which IC50 does the source give for `COc1ncc(-c2cccc([C@@H](C)C(=O)Nc3ccc(-c4ccnc(C)c4)cc3)c2)cn1` [Cpd 502, (2R)-2-(3-(2-methoxy-5-pyrimidinyl)-phenyl)-N-(4-(2-methyl-4-pyridinyl)-phenyl)propanamide] here?
**A.** Its IC50 is greater than 10000 nM.

**Q.** For `CC(=O)N1CCN(c2ccc(-c3cccc([C@@H](C)C(=O)Nc4ccc(-c5ccnc(C)c5)cc4)c3)cc2)CC1` [Cpd 522], which IC50 is on record?
**A.** The IC50 was 320 nM.

**Q.** With `Cc1cc(-c2ccc(NC(=O)C(C)c3cccc(C4CC4)c3)cc2)ccn1` (stereo not shown) [Cpd 524, 2-(3-cyclopropylphenyl)-N-(4-(2-methyl-4-pyridinyl)phenyl)propanamide] as the compound, how does the IC50 read?
**A.** The IC50 was 1200 nM.

**Q.** With `CCN(Cc1cc(OC)c(OC)c(OC)c1)c1ccc(C(C)C(=O)Nc2ccc(-c3ccnc(C)c3)cc2)cc1` (stereo not shown) [Cpd 526, 2-(4-(ethyl(3,4,5-trimethoxybenzyl)amino)-phenyl)-N-(4-(2-methyl-4-pyridinyl)-phenyl)propanamide] as the compound, how does the IC50 read?
**A.** Its IC50 is 310 nM.

**Q.** How did the IC50 turn out when `Cc1cc(-c2ccc(NC(=O)CC3CCCC3)cc2)ccn1` [Cpd 558, 2-cyclopentyl-N-(4-(2-methyl-4-pyridinyl)-phenyl)acetamide] was run?
**A.** The IC50 was greater than 10000 nM.

**Q.** How did the IC50 turn out when `COc1cc(C(C)C(=O)Nc2ccc(-c3ccnc(C)c3)cc2)ccc1N` (stereo not shown) [Cpd 574, 2-(4-amino-3-methoxyphenyl)-N-(4-(2-methyl-4-pyridinyl)phenyl)propanamide] was run?
**A.** Its IC50 is greater than 10000 nM.

**Q.** How did the IC50 turn out when `COc1cc(C(C)C(=O)Nc2ccc(-c3ccnc(C)c3)cc2)ccc1NC(C)C` (stereo not shown) [Cpd 575, 2-(3-methoxy-4-((1-methylethyl)amino)-phenyl)-N-(4-(2-methyl-4-pyridinyl)-phenyl)propanamide] was run?
**A.** Its IC50 is 1520 nM.

**Q.** `Cc1cc(-c2ccc(NC(=O)C(C)c3ccc(N4CCCCC4)nc3)cc2)ccn1` (stereo not shown) [Cpd 580, N-(4-(2-methyl-4-pyridinyl)phenyl)-2-(6-(1-piperidinyl)-3-pyridinyl)propanamide] was tested. Which IC50 did it give?
**A.** Its IC50 is 616 nM.

**Q.** `Cc1cc(-c2ccc(NC(=O)Cc3ccc4oc(-c5cccnc5)nc4c3)cc2)ccn1` [Cpd 583, N-(4-(2-methyl-4-pyridinyl)phenyl)-2-(2-(3-pyridinyl)-1,3-benzoxazol-5-yl)-acetamide] was tested. Which IC50 did it give?
**A.** Its IC50 is 4610 nM.

**Q.** For `Cc1cc(-c2ccc(NC(=O)Cc3ccc4oc(-c5ccncc5)nc4c3)cc2)ccn1` [Cpd 584, N-(4-(2-methyl-4-pyridinyl)phenyl)-2-(2-(4-pyridinyl)-1,3-benzoxazol-5-yl)-acetamide], which IC50 is on record?
**A.** The IC50 was greater than 10000 nM.

**Q.** For `Cc1cc(-c2ccc(NC(=O)c3ccc(CN4CCOCC4)cc3)cc2)ccn1` [Cpd 625], which IC50 is on record?
**A.** Its IC50 is greater than 3330 nM.

**Q.** `Cc1cc(C(C)C(=O)Nc2ccc(-c3ccnc(C)c3)cc2)cc(N2CCC(F)(F)CC2)c1` (stereo not shown) [Cpd 637, 2-(3-(4,4-difluoro-1-piperidinyl)-5-methyl-phenyl)-N-(4-(2-methyl-4-pyridinyl)-phenyl)propanamide] was tested. Which IC50 did it give?
**A.** The IC50 was greater than 10000 nM.

**Q.** Which IC50 does the source give for `Cc1cc(-c2ccc(NC(=O)[C@H](C)c3cccc(-c4ccc(C(=O)O)cc4)c3)cc2)ccn1` [Cpd 639] here?
**A.** The IC50 was greater than 10000 nM.

**Q.** With `Cc1cc(-c2ccc(NC(=O)c3ccc4[nH]c5c(c4c3)CSCC5)cc2)ccn1` [Cpd 662] as the compound, how does the IC50 read?
**A.** Its IC50 is 5100 nM.
